In PubChem BioAssay AID1194 (EPA DSSTox, 2008):
The source made the active and inactive calls.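 Rule for the calls: active = chemicals rated mutagenic or weakly mutagenic in the Salmonella bacterial test by one literature review, or positive overall by another; inconclusive = no clear call, values can overlap the other calls; inactive = the rest.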

Each compound was assayed on Salmonella typhimurium Ames mutagenicity, literature compiled (assay: DSSTox (CPDBAS) Carcinogenic Potency Database Salmonella Mutagenicity).
Excerpt: The Carcinogenic Potency Database (CPDB) is a unique and widely used international resource of the results of over 6500 chronic, long-term animal cancer tests on over 1500 chemical substances. The CPDB provides easy access to the bioassay literature, with qualitative and quantitative analyses of both positive and negative experiments that have been published over the past 50 years in the general literature and by the National Cancer Institute/National Toxicology Program. The CPDB standardizes the diverse literature of cancer bioassays that vary widely in protocol, histopathological examination and nomenclature, and in the published author's choices of what information to provide in their papers. Results are reported in the CPDB for tests in rats, mice, hamsters, dogs, and nonhuman primates, and are based on the most positive result among all experiments for each sex-species. The DSSTox CPDBAS (all species) file incorporates data from the CPDB Summary Tables for the full list of over 1500 chemical substances tested in at least one species.
A chemical is classified within the CPDB as mutagenic, i.e. "active", in the Salmonella assay if it was evaluated overall as either "mutagenic" or "weakly mutagenic" by Zeiger [Zeiger, E. (1997) Genotoxicity Database. In: Gold and Zeiger, Eds. Handbook of Carcinogenic Potency and Genotoxicity Databases. Boca Raton, FL: CRC Press, pp. 687-729. http://potency.berkeley.edu/CRCbook.html] or as overall "positive" by the EPA Gene-Tox Program [Kier et al. (1986) Mutat. Res. 168: 69-240].

SMILES | outcome
COc1cccc2c1cc([N+](=O)[O-])c1c(C(=O)O)cc3c(c12)OCO3 | active
Cc1cc2c(nc1N)[nH]c1ccccc12 | active; inactive
CC1CCC(C(C)C)C(O)C1 (stereo not given) | inactive; active
COc1ccc(N)cc1N | active; inactive
Clc1cccc(-c2ccc(Cl)c(Cl)c2Cl)c1Cl | inactive; active
C[C@H]1C(=O)O[C@@H]2CCN3CC=C(COC(=O)[C@](C)(O)[C@]1(C)O)[C@H]23 | inactive; active
Cc1ccccc1S(N)(=O)=O | inactive
Brc1c(Br)c(Br)c(Oc2c(Br)c(Br)c(Br)c(Br)c2Br)c(Br)c1Br | inactive; active
CC1CN(N=O)CC(C)O1 (stereo not given) | active
CC1(C)S[C@@H]2[C@H](NC(=O)[C@H](N)c3ccccc3)C(=O)N2[C@H]1C(=O)O | inactive
Cc1cc(=O)n(-c2ccccc2)n1C | inactive; active
Cc1ncc[nH]1 | inactive
COC(=O)[C@H]1[C@H]2C[C@@H]3c4[nH]c5cc(OC)ccc5c4CCN3C[C@H]2C[C@@H](OC(=O)c2cc(OC)c(OC)c(OC)c2)[C@@H]1OC | inactive
O=C1C2CC=CCC2C(=O)N1SC(Cl)(Cl)Cl (stereo not given) | active
C/C=N/O | inactive
CCCCN(CCCCO)N=O | active; inactive
Cc1ncc([N+](=O)[O-])n1C | active
CC(CCl)OC(C)CCl (stereo not given) | active
C=C(C)[C@H]1CC=C(C)C(=O)C1 | inactive; active
Nc1ccc(NCCO)c([N+](=O)[O-])c1 | active
CCOC(=O)C1OC1(C)c1ccccc1 (stereo not given) | inactive; active
NC(=O)N(CC(=O)O)N=O | inactive
CC1CN(N=O)CC(C)N1N=O (stereo not given) | active
COCCl | inactive; active

SMILES | outcome
c1cc(OCC2CO2)cc(OCC2CO2)c1 (stereo not given) | active
O=C1C(Cl)=C(Cl)C(=O)C(Cl)=C1Cl | active
Clc1nc(Cl)nc(Nc2ccccc2Cl)n1 | inactive
Cc1ccc(S(=O)(=O)NC(=O)NN2CCCCCC2)cc1 | inactive; active
NS(=O)(=O)c1cc2c(cc1Cl)NCNS2(=O)=O | inactive; active
O=NN1CCCCC1 | active
CCN(Cc1cccc(S(=O)(=O)[O-])c1)c1ccc(C(=C2C=CC(=[N+](C)C)C=C2)c2ccc(N(CC)Cc3cccc(S(=O)(=O)O)c3)cc2)cc1 | active
Cc1c(N)cccc1N | active; inactive
O=S(=O)(O)c1cc(S(=O)(=O)O)c2c(N=Nc3ccccc3)c(O)ccc2c1 | inactive; active
CCOP(=S)(OCC)Oc1nc(Cl)c(Cl)cc1Cl | inactive
C=CC(=O)OCC | inactive
S=c1nc[nH]c2nc[nH]c12 | active
Nc1cc(Cl)c(N)c(Cl)c1 | active
Clc1ccc(Cl)cc1 | inactive
c1ccc(N=Nc2ccccc2)cc1 | active
CN(C)Nc1nc(-c2ccc([N+](=O)[O-])o2)cs1 | active; inactive
Cn1cnc([N+](=O)[O-])c1Sc1ncnc2nc[nH]c12 | active
C=CCOCC1CO1 (stereo not given) | active
Nc1ccc(O)c([N+](=O)[O-])c1 | active
ClC(Cl)Cl | inactive
CC(=O)Nc1ccc2c(c1)Cc1cc(NC(C)=O)ccc1-2 | active
O=CNNc1nc(-c2ccc([N+](=O)[O-])o2)cs1 | active; inactive
Oc1ccc(O)cc1 | inactive
ClC(Cl)(Cl)c1ccccc1 | active

SMILES | outcome
S=P(N1CC1)(N1CC1)N1CC1 | active; inactive
O=C(O)c1[nH]n(-c2ccc(S(=O)(=O)O)cc2)c(=O)c1N=Nc1ccc(S(=O)(=O)O)cc1 | inactive; active
CC(O)c1ccccc1 (stereo not given) | inactive; active
CN(C)CCN(Cc1cccs1)c1ccccn1 | inactive; active
CC(Cl)CCl (stereo not given) | active; inactive
CC(=O)Nc1ccc(N=Nc2cc(C)ccc2O)cc1 | active
Cc1c(N)nc(C)c2c1[nH]c1ccccc12 | active
C=CC(=O)c1ccc2c(c1)OCO2 | inactive; active
OC[P+](CO)(CO)CO | inactive; active
Oc1cccc(O)c1 | inactive
Nc1c(Cl)cc(Cl)cc1Cl | inactive; active
CCCl | active
N=C1C=CC(=C(c2ccc(N)cc2)c2ccc(N)cc2)C=C1 | active
O=C(O)CN(CCN(CC(=O)O)CC(=O)O)CC(=O)O | inactive
c1ccc2occc2c1 | inactive; active
CCC1(c2ccccc2)C(=O)N=C(O)NC1=O (stereo not given) | inactive
COc1ccc(N)cc1 | active; inactive
COP(=S)(OC)SCn1nnc2ccccc2c1=O | active; inactive
Cc1ccc2ncccc2c1 | active
[O]=[Cr](=[O])([OH])[O][Cr](=[O])(=[O])[OH] | active
CCc1cc(C(N)=S)ccn1 | inactive; active
CC(C)O | inactive; active
CCC[CH2][Sn]([CH2]CCC)([O]C(C)=O)[O]C(C)=O | inactive
COc1c(Cl)c(Cl)c(Cl)c(Cl)c1Cl | active; inactive

SMILES | outcome
O=S(=O)(O)c1ccc(N=Nc2c(O)ccc3cc(S(=O)(=O)O)ccc23)cc1 | inactive; active
CC(=O)Nc1nc(-c2ccc([N+](=O)[O-])o2)cs1 | active; inactive
O=c1c(O)c(-c2ccc(O)c(O)c2)oc2cc(O)cc(O)c12 | active; inactive
O=C1c2ccccc2-c2ccc3c4c(ccc1c24)-c1ccccc1C3=O | inactive; active
CC(=O)C(N=Nc1ccc(-c2ccc(N=NC(C(C)=O)C(=O)Nc3ccccc3)c(Cl)c2)cc1Cl)C(=O)Nc1ccccc1 (stereo not given) | inactive
S=C([S-])NCCNC(=S)[S-].[Zn+2] | inactive; active
CC1CN(/N=C/c2ccc([N+](=O)[O-])o2)C(=O)N1 (stereo not given) | active; inactive
CC(C)(C)c1cc(O)ccc1O | inactive
NNCCc1ccccc1 | active; inactive
O=C/C=C/O | inactive
C=CC(OC(C)=O)c1ccc2c(c1)OCO2 (stereo not given) | active
O=P(OC(CCl)CCl)(OC(CCl)CCl)OC(CCl)CCl | active
CN(C)c1ccccc1 | inactive
O=S(=O)(O)c1c(N=Nc2c(O)ccc3ccccc23)ccc2ccccc12 | inactive; active
O=c1ccc(=O)[nH][nH]1 | inactive; active
COc1ccc(O)c(C(C)(C)C)c1 | inactive; active
Cc1cc(C)nc(NS(=O)(=O)c2ccc(N)cc2)n1 | inactive
CC[C@H]1CN2CCc3cc(OC)c(OC)cc3[C@@H]2C[C@@H]1C[C@H]1NCCc2cc(OC)c(OC)cc21 | inactive; active
NNC(N)=O | inactive
C=CC | active; inactive
NC(=O)Cc1cccc2ccccc12 | active
[N-]=[N+]=[N-] | active; inactive
Cn1cc[nH]c1=S | inactive; active
